Experimental data taken from PubChem BioAssay (NCI).
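48-hour exposure; five concentrations; linearly interpolated endpoints. Here, GI50 denotes the concentration required for 50% inhibition of growth. TGI denotes the concentration required for complete inhibition of growth.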

How the values were obtained:
Test in all cases: inhibition of tumour cell growth, NCI panel, 48 h
A498 renal = test system: A498 renal
DU-145 prostate = test system: DU-145 prostate
SK-MEL-2 melanoma = test system: SK-MEL-2 melanoma
COLO 205 colon = test system: COLO 205 colon
K-562 leukemia = test system: K-562 leukemia
HL-60(TB) leukemia = test system: HL-60(TB) leukemia
SF-539 CNS = test system: SF-539 CNS
IGROV1 ovarian = test system: IGROV1 ovarian
SW-620 colon = test system: SW-620 colon
SK-MEL-5 melanoma = test system: SK-MEL-5 melanoma
CCRF-CEM leukemia = test system: CCRF-CEM leukemia
RPMI-8226 leukemia = test system: RPMI-8226 leukemia
MDA-MB-435 = test system: MDA-MB-435
BT-549 breast = test system: BT-549 breast
SNB-75 CNS = test system: SNB-75 CNS
HCT-116 colon = test system: HCT-116 colon
NCI-H460 lung = test system: NCI-H460 lung
A549 NSCLC = test system: A549 NSCLC
SNB-19 CNS = test system: SNB-19 CNS
SF-268 CNS = test system: SF-268 CNS
SK-MEL-28 melanoma = test system: SK-MEL-28 melanoma
HOP-62 NSCLC = test system: HOP-62 NSCLC
HS 578T breast = test system: HS 578T breast
NCI-H23 lung = test system: NCI-H23 lung
HOP-92 NSCLC = test system: HOP-92 NSCLC
OVCAR-8 ovarian = test system: OVCAR-8 ovarian
SF-295 CNS = test system: SF-295 CNS
UACC-62 melanoma = test system: UACC-62 melanoma
LOX IMVI melanoma = test system: LOX IMVI melanoma
MOLT-4 leukemia = test system: MOLT-4 leukemia
HCC-2998 colon = test system: HCC-2998 colon
RXF 393 renal = test system: RXF 393 renal
KM12 colon = test system: KM12 colon
UACC-257 melanoma = test system: UACC-257 melanoma
HT29 colon = test system: HT29 colon
SR leukemia = test system: SR leukemia
MALME-3M melanoma = test system: MALME-3M melanoma
OVCAR-4 ovarian = test system: OVCAR-4 ovarian
NCI/ADR-RES ovarian = test system: NCI/ADR-RES ovarian
T-47D breast = test system: T-47D breast
PC-3 prostate = test system: PC-3 prostate
HCT-15 colon = test system: HCT-15 colon
UO-31 renal = test system: UO-31 renal
SN12C renal = test system: SN12C renal
ACHN renal = test system: ACHN renal
MCF7 breast = test system: MCF7 breast
SK-OV-3 ovarian = test system: SK-OV-3 ovarian
OVCAR-3 ovarian = test system: OVCAR-3 ovarian
U251 CNS = test system: U251 CNS
MDA-MB-231 breast = test system: MDA-MB-231 breast
TK-10 renal = test system: TK-10 renal
786-0 renal = test system: 786-0 renal
OVCAR-5 ovarian = test system: OVCAR-5 ovarian
M14 melanoma = test system: M14 melanoma
NCI-H522 lung = test system: NCI-H522 lung
NCI-H226 lung = test system: NCI-H226 lung
CAKI-1 renal = test system: CAKI-1 renal

Question: For `CCCN(CCSSCCNc1nc(N(C)O)nc(N(C)O)n1)c1nc(N(C)O)nc(N(C)O)n1`, which GI50 (A498 renal) is on record?
Answer: 19.5 µM

Question: And the TGI (A498 renal)?
Answer: > 100 µM

Question: And the GI50 (DU-145 prostate)?
Answer: 8.78 µM

Question: And the TGI (DU-145 prostate)?
Answer: > 100 µM

Question: What about the GI50 (SK-MEL-2 melanoma) of the same molecule?
Answer: 18.6 µM

Question: And the TGI (SK-MEL-2 melanoma)?
Answer: > 100 µM

Question: And the GI50 (COLO 205 colon)?
Answer: 2.9 µM

Question: What about the TGI (COLO 205 colon) of the same molecule?
Answer: > 100 µM

Question: What about the GI50 (K-562 leukemia) of the same molecule?
Answer: 15.7 µM

Question: And the TGI (K-562 leukemia)?
Answer: > 100 µM

Question: And the GI50 (HL-60(TB) leukemia)?
Answer: 3.31 µM

Question: What about the TGI (HL-60(TB) leukemia) of the same molecule?
Answer: > 100 µM

Question: And the GI50 (SF-539 CNS)?
Answer: 4.05 µM

Question: What about the TGI (SF-539 CNS) of the same molecule?
Answer: > 100 µM

Question: What about the GI50 (IGROV1 ovarian) of the same molecule?
Answer: 32.3 µM

Question: And the TGI (IGROV1 ovarian)?
Answer: > 100 µM

Question: What about the GI50 (SW-620 colon) of the same molecule?
Answer: 6.72 µM

Question: And the TGI (SW-620 colon)?
Answer: > 100 µM

Question: And the GI50 (SK-MEL-5 melanoma)?
Answer: 8.65 µM

Question: And the TGI (SK-MEL-5 melanoma)?
Answer: > 100 µM

Question: What about the GI50 (CCRF-CEM leukemia) of the same molecule?
Answer: 2.24 µM

Question: And the TGI (CCRF-CEM leukemia)?
Answer: > 100 µM

Question: And the GI50 (RPMI-8226 leukemia)?
Answer: 4.48 µM

Question: And the TGI (RPMI-8226 leukemia)?
Answer: > 100 µM

Question: And the GI50 (MDA-MB-435)?
Answer: 4.91 µM

Question: And the TGI (MDA-MB-435)?
Answer: > 100 µM

Question: What about the GI50 (BT-549 breast) of the same molecule?
Answer: 7.6 µM

Question: What about the TGI (BT-549 breast) of the same molecule?
Answer: > 100 µM

Question: And the GI50 (SNB-75 CNS)?
Answer: 24.4 µM

Question: And the TGI (SNB-75 CNS)?
Answer: > 100 µM

Question: What about the GI50 (HCT-116 colon) of the same molecule?
Answer: 3.97 µM

Question: What about the TGI (HCT-116 colon) of the same molecule?
Answer: > 100 µM

Question: What about the GI50 (NCI-H460 lung) of the same molecule?
Answer: 3.87 µM

Question: What about the TGI (NCI-H460 lung) of the same molecule?
Answer: > 100 µM

Question: And the GI50 (A549 NSCLC)?
Answer: 7.59 µM

Question: What about the TGI (A549 NSCLC) of the same molecule?
Answer: > 100 µM

Question: And the GI50 (SNB-19 CNS)?
Answer: 4.15 µM

Question: And the TGI (SNB-19 CNS)?
Answer: > 100 µM

Question: What about the GI50 (SF-268 CNS) of the same molecule?
Answer: 6.37 µM

Question: And the TGI (SF-268 CNS)?
Answer: > 100 µM

Question: And the GI50 (SK-MEL-28 melanoma)?
Answer: 6.99 µM

Question: And the TGI (SK-MEL-28 melanoma)?
Answer: > 100 µM

Question: What about the GI50 (HOP-62 NSCLC) of the same molecule?
Answer: 4.49 µM

Question: What about the TGI (HOP-62 NSCLC) of the same molecule?
Answer: > 100 µM

Question: And the GI50 (HS 578T breast)?
Answer: 25.5 µM

Question: And the TGI (HS 578T breast)?
Answer: > 100 µM

Question: What about the GI50 (NCI-H23 lung) of the same molecule?
Answer: 18 µM

Question: What about the TGI (NCI-H23 lung) of the same molecule?
Answer: > 100 µM

Question: What about the GI50 (HOP-92 NSCLC) of the same molecule?
Answer: 6.1 µM

Question: What about the TGI (HOP-92 NSCLC) of the same molecule?
Answer: > 100 µM

Question: And the GI50 (OVCAR-8 ovarian)?
Answer: 5.26 µM

Question: And the TGI (OVCAR-8 ovarian)?
Answer: > 100 µM

Question: And the GI50 (SF-295 CNS)?
Answer: 3.56 µM

Question: What about the TGI (SF-295 CNS) of the same molecule?
Answer: 58.3 µM

Question: What about the GI50 (UACC-62 melanoma) of the same molecule?
Answer: 4.39 µM

Question: What about the TGI (UACC-62 melanoma) of the same molecule?
Answer: 28.9 µM

Question: And the GI50 (LOX IMVI melanoma)?
Answer: 6.63 µM

Question: What about the TGI (LOX IMVI melanoma) of the same molecule?
Answer: > 100 µM

Question: And the GI50 (MOLT-4 leukemia)?
Answer: 3.72 µM

Question: And the TGI (MOLT-4 leukemia)?
Answer: > 100 µM

Question: What about the GI50 (HCC-2998 colon) of the same molecule?
Answer: 4.73 µM

Question: What about the TGI (HCC-2998 colon) of the same molecule?
Answer: > 100 µM

Question: And the GI50 (RXF 393 renal)?
Answer: 81 µM

Question: And the TGI (RXF 393 renal)?
Answer: > 100 µM

Question: What about the GI50 (KM12 colon) of the same molecule?
Answer: 6.25 µM

Question: And the TGI (KM12 colon)?
Answer: > 100 µM

Question: What about the GI50 (UACC-257 melanoma) of the same molecule?
Answer: 22.7 µM

Question: And the TGI (UACC-257 melanoma)?
Answer: > 100 µM

Question: What about the GI50 (HT29 colon) of the same molecule?
Answer: 7.81 µM

Question: And the TGI (HT29 colon)?
Answer: > 100 µM

Question: What about the GI50 (SR leukemia) of the same molecule?
Answer: 2.71 µM

Question: What about the TGI (SR leukemia) of the same molecule?
Answer: > 100 µM

Question: And the GI50 (MALME-3M melanoma)?
Answer: 6.29 µM

Question: What about the TGI (MALME-3M melanoma) of the same molecule?
Answer: > 100 µM

Question: And the GI50 (OVCAR-4 ovarian)?
Answer: 3.29 µM

Question: What about the TGI (OVCAR-4 ovarian) of the same molecule?
Answer: > 100 µM

Question: And the GI50 (NCI/ADR-RES ovarian)?
Answer: 6.48 µM

Question: And the TGI (NCI/ADR-RES ovarian)?
Answer: > 100 µM

Question: And the GI50 (T-47D breast)?
Answer: 7.14 µM

Question: What about the TGI (T-47D breast) of the same molecule?
Answer: > 100 µM

Question: And the GI50 (PC-3 prostate)?
Answer: 82.4 µM

Question: What about the TGI (PC-3 prostate) of the same molecule?
Answer: > 100 µM

Question: And the GI50 (HCT-15 colon)?
Answer: 4.28 µM

Question: And the TGI (HCT-15 colon)?
Answer: > 100 µM

Question: What about the GI50 (UO-31 renal) of the same molecule?
Answer: 5.19 µM

Question: And the TGI (UO-31 renal)?
Answer: > 100 µM

Question: And the GI50 (SN12C renal)?
Answer: 9.84 µM

Question: And the TGI (SN12C renal)?
Answer: > 100 µM

Question: What about the GI50 (ACHN renal) of the same molecule?
Answer: 3.92 µM

Question: What about the TGI (ACHN renal) of the same molecule?
Answer: > 100 µM

Question: What about the GI50 (MCF7 breast) of the same molecule?
Answer: 4.68 µM

Question: And the TGI (MCF7 breast)?
Answer: > 100 µM

Question: And the GI50 (SK-OV-3 ovarian)?
Answer: 3.16 µM

Question: What about the TGI (SK-OV-3 ovarian) of the same molecule?
Answer: > 100 µM

Question: And the GI50 (OVCAR-3 ovarian)?
Answer: 6.42 µM

Question: And the TGI (OVCAR-3 ovarian)?
Answer: > 100 µM

Question: And the GI50 (U251 CNS)?
Answer: 5.35 µM

Question: And the TGI (U251 CNS)?
Answer: > 100 µM

Question: And the GI50 (MDA-MB-231 breast)?
Answer: 18.5 µM

Question: And the TGI (MDA-MB-231 breast)?
Answer: > 100 µM

Question: And the GI50 (TK-10 renal)?
Answer: 3.25 µM

Question: What about the TGI (TK-10 renal) of the same molecule?
Answer: > 100 µM

Question: And the GI50 (786-0 renal)?
Answer: 3.67 µM

Question: What about the TGI (786-0 renal) of the same molecule?
Answer: > 100 µM

Question: What about the GI50 (OVCAR-5 ovarian) of the same molecule?
Answer: > 100 µM

Question: And the TGI (OVCAR-5 ovarian)?
Answer: > 100 µM

Question: What about the GI50 (M14 melanoma) of the same molecule?
Answer: 5.68 µM

Question: And the TGI (M14 melanoma)?
Answer: > 100 µM

Question: And the GI50 (NCI-H522 lung)?
Answer: 92.1 µM

Question: And the TGI (NCI-H522 lung)?
Answer: > 100 µM

Question: What about the GI50 (NCI-H226 lung) of the same molecule?
Answer: 7.76 µM

Question: And the TGI (NCI-H226 lung)?
Answer: > 100 µM

Question: And the GI50 (CAKI-1 renal)?
Answer: 2.47 µM

Question: What about the TGI (CAKI-1 renal) of the same molecule?
Answer: > 100 µM
